Results on three compounds are retold here after ChEMBL document CHEMBL1138460, “Synthesis of a new opioid ligand having the oxabicyclo[3.2.1]octane skeleton using a new rearrangement reaction” (Bioorg Med Chem Lett, 2009).

Test [1] is described as follows: Displacement of [3H]NTI from delta opioid receptor in guinea pig forebrain. On the set-up: species or system Cavia porcellus. For orientation: Loss of bound radioactivity is the signal in a displacement assay; it reports binding, not function.
The target of test [2] is Kappa-type opioid receptor (Cavia porcellus, UniProt P41144). Put plainly: Displacement of [3H]U69593 from kappa opioid receptor in guinea pig cerebellum. The format is tissue-based.
In the next test the target is Mu-type opioid receptor (Cavia porcellus, UniProt P97266). Nature of the test: Displacement of [3H]DAMGO from mu opioid receptor in guinea pig forebrain.
The target in test [3] is Opioid receptor (mu and kappa) (Cavia porcellus) (UniProt P41144+P97266). Nature of the test: Ratio of Ki for guinea pig mu opioid receptor to Ki for guinea pig kappa opioid receptor.

Each structure is given as a SMILES string.

Sequence of Kappa-type opioid receptor (P41144 whole entry): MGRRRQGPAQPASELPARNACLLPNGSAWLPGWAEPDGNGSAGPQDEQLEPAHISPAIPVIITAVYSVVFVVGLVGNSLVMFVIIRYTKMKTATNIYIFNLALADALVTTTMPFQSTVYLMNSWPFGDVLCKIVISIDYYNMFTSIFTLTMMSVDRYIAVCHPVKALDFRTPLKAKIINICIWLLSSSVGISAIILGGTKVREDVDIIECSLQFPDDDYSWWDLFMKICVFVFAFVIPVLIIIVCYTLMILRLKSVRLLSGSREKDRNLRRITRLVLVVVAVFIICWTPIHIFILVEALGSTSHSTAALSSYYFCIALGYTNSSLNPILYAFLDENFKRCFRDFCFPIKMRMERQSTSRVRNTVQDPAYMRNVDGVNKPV
Sequence of Opioid receptor (mu and kappa) (Cavia porcellus) (P41144 whole entry, looked up): as the sequence (P41144 whole entry) above
Sequence of Opioid receptor (mu and kappa) (Cavia porcellus) (P97266 whole entry, looked up): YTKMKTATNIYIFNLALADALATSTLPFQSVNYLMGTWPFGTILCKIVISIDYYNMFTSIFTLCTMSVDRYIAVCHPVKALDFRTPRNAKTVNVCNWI
Sequence of Mu-type opioid receptor (P97266 whole entry): as the sequence (P97266 whole entry, looked up) above

As usually defined, the Ki is a measure of affinity in units of concentration, obtained from inhibition or displacement. In test [1], `O=C1CC[C@@]2(O)[C@H]3Cc4ccc(O)c5c4[C@@]2(CCN3CC2CC2)[C@H]1O5` [NALTREXONE] yielded an inhibition constant (Ki) of 20.7 nM.
In the case of `OC[C@]12CC[C@@]3(O1)[C@H]1Cc4ccc(O)cc4[C@@]3(CCN1CC1CC1)C2`, the Ki in test [2] was found to be 0.102 nM; at Mu-type opioid receptor, 0.145 nM; in test [1], 3.5 nM. Besides, in test [3], the Ratio Ki worked out at 1.42.
On to `O=C1C[C@]23CCN(CC4CC4)[C@H](Cc4ccc(O)cc42)[C@]32CC[C@H]1O2`, for which the Ki in test [2] amounted to 0.233 nM; on Mu-type opioid receptor, 0.397 nM; in test [1] it was 6.84 nM. Moreover, the Ratio Ki in test [3] came to 1.7.
